The NIST ThermoML archive (doi:10.1016/j.jct.2003.11.008)

Legend:
[1] = xn = mol fraction of the nth substance listed; settings: 318.15 K, 101.3 kPa, Liquid
[2] = excess molar enthalpy (molar enthalpy of mixing); xn = mol fraction of the nth substance listed; settings: 318.15 K, 101.3 kPa, Liquid
[3] = refractive index (Na D-line) (dimensionless); settings: 318.15 K; 101.33 kPa; Liquid; Standard Abbe refractometry
[4] = 318.15 K; 101.33 kPa; Liquid; Vibrating tube method

CCCCCCCCCCCCCCC [pentadecane] + COC(C)=O
Settings | excess molar enthalpy [kcal/mol] | excess molar volume [m3/mol]
[1], x2 = 0.1527 | – | 8.72e-07
[1], x2 = 0.2889 | – | 1.467e-06
[1], x2 = 0.3786 | – | 1.739e-06
[1], x2 = 0.4627 | – | 1.898e-06
[1], x2 = 0.5368 | – | 1.979e-06
[1], x2 = 0.5993 | – | 2.002e-06
[1], x2 = 0.6511 | – | 1.945e-06
[1], x2 = 0.6955 | – | 1.858e-06
[1], x2 = 0.7356 | – | 1.746e-06
[1], x2 = 0.777 | – | 1.644e-06
[1], x2 = 0.8099 | – | 1.512e-06
[1], x2 = 0.8412 | – | 1.386e-06
[1], x2 = 0.8595 | – | 1.259e-06
[1], x2 = 0.9126 | – | 9.19e-07
[1], x2 = 0.9511 | – | 5.84e-07
[1], x2 = 0.9777 | – | 2.73e-07
[2], x2 = 0.091 | 0.14 | –
[2], x2 = 0.1824 | 0.272 | –
[2], x2 = 0.2689 | 0.391 | –
[2], x2 = 0.3572 | 0.488 | –
[2], x2 = 0.4282 | 0.549 | –
[2], x2 = 0.4946 | 0.586 | –
[2], x2 = 0.5472 | 0.6 | –
[2], x2 = 0.5908 | 0.601 | –
[2], x2 = 0.6306 | 0.594 | –
[2], x2 = 0.6559 | 0.584 | –
[2], x2 = 0.6897 | 0.567 | –
[2], x2 = 0.7229 | 0.544 | –
[2], x2 = 0.7578 | 0.52 | –
[2], x2 = 0.7947 | 0.484 | –
[2], x2 = 0.8299 | 0.438 | –
[2], x2 = 0.8675 | 0.385 | –
[2], x2 = 0.905 | 0.316 | –
[2], x2 = 0.94 | 0.238 | –
[2], x2 = 0.9723 | 0.148 | –

CCCCCCCCCCC [undecane]
Settings | mass density [kg/m3] | refractive index
[3] | – | 1.4063
[4] | 721.76 | –

CCCOC(C)=O [propyl ethanoate]
Settings | mass density [kg/m3] | refractive index
[3] | – | 1.3721
[4] | 859.78 | –

CCOC(C)=O [ethyl acetate] + CCCCCCC
Settings | excess molar enthalpy [kcal/mol] | excess molar volume [m3/mol]
[1], x1 = 0.0808 | – | 4.63e-07
[1], x1 = 0.143 | – | 7.33e-07
[1], x1 = 0.2084 | – | 9.35e-07
[1], x1 = 0.2751 | – | 1.105e-06
[1], x1 = 0.3329 | – | 1.204e-06
[1], x1 = 0.3968 | – | 1.263e-06
[1], x1 = 0.4462 | – | 1.303e-06
[1], x1 = 0.5057 | – | 1.309e-06
[1], x1 = 0.5536 | – | 1.289e-06
[1], x1 = 0.6019 | – | 1.236e-06
[1], x1 = 0.6506 | – | 1.163e-06
[1], x1 = 0.6848 | – | 1.107e-06
[1], x1 = 0.7249 | – | 1.019e-06
[1], x1 = 0.8166 | – | 7.67e-07
[1], x1 = 0.8964 | – | 4.43e-07
[1], x1 = 0.9478 | – | 2.47e-07
[2], x1 = 0.0803 | 0.113 | –
[2], x1 = 0.1683 | 0.2 | –
[2], x1 = 0.2488 | 0.27 | –
[2], x1 = 0.323 | 0.317 | –
[2], x1 = 0.395 | 0.346 | –
[2], x1 = 0.4614 | 0.359 | –
[2], x1 = 0.5037 | 0.361 | –
[2], x1 = 0.546 | 0.363 | –
[2], x1 = 0.5784 | 0.357 | –
[2], x1 = 0.5813 | 0.357 | –
[2], x1 = 0.6222 | 0.341 | –
[2], x1 = 0.6647 | 0.322 | –
[2], x1 = 0.7146 | 0.296 | –
[2], x1 = 0.7646 | 0.26 | –
[2], x1 = 0.8157 | 0.217 | –
[2], x1 = 0.8649 | 0.17 | –
[2], x1 = 0.9129 | 0.115 | –
[2], x1 = 0.9591 | 0.0596 | –

CCCCCCC [heptane]
Settings | mass density [kg/m3] | refractive index
[3] | – | 1.3748
[4] | 662.04 | –

CCCCOC(C)=O [butyl ethanoate]
Settings | mass density [kg/m3] | refractive index
[3] | – | 1.3825
[4] | 855.39 | –

CCCCCOC(C)=O [pentyl ethanoate] + CCCCCCC
Settings | excess molar enthalpy [kcal/mol] | excess molar volume [m3/mol]
[1], x1 = 0.0546 | – | 1.29e-07
[1], x1 = 0.1048 | – | 2.14e-07
[1], x1 = 0.1515 | – | 2.65e-07
[1], x1 = 0.2014 | – | 3.07e-07
[1], x1 = 0.2488 | – | 3.45e-07
[1], x1 = 0.3009 | – | 3.81e-07
[1], x1 = 0.3474 | – | 3.99e-07
[1], x1 = 0.3999 | – | 4.11e-07
[1], x1 = 0.4426 | – | 4.09e-07
[1], x1 = 0.4977 | – | 3.97e-07
[1], x1 = 0.5503 | – | 3.72e-07
[1], x1 = 0.5881 | – | 3.55e-07
[1], x1 = 0.636 | – | 3.23e-07
[1], x1 = 0.7502 | – | 2.51e-07
[1], x1 = 0.8467 | – | 1.71e-07
[1], x1 = 0.9288 | – | 9.4e-08
[2], x1 = 0.0544 | 0.0566 | –
[2], x1 = 0.1187 | 0.104 | –
[2], x1 = 0.1801 | 0.141 | –
[2], x1 = 0.2428 | 0.169 | –
[2], x1 = 0.3049 | 0.192 | –
[2], x1 = 0.3645 | 0.205 | –
[2], x1 = 0.4174 | 0.211 | –
[2], x1 = 0.468 | 0.212 | –
[2], x1 = 0.472 | 0.212 | –
[2], x1 = 0.5161 | 0.209 | –
[2], x1 = 0.5646 | 0.203 | –
[2], x1 = 0.6163 | 0.191 | –
[2], x1 = 0.6696 | 0.176 | –
[2], x1 = 0.7277 | 0.155 | –
[2], x1 = 0.7889 | 0.128 | –
[2], x1 = 0.8473 | 0.0966 | –
[2], x1 = 0.9078 | 0.0615 | –
[2], x1 = 0.9594 | 0.0278 | –

COC(C)=O [methyl ethanoate] + CCCCCCC
Settings | excess molar enthalpy [kcal/mol] | excess molar volume [m3/mol]
[1], x1 = 0.096 | – | 6.73e-07
[1], x1 = 0.1583 | – | 9.83e-07
[1], x1 = 0.2293 | – | 1.293e-06
[1], x1 = 0.2947 | – | 1.495e-06
[1], x1 = 0.3534 | – | 1.597e-06
[1], x1 = 0.408 | – | 1.665e-06
[1], x1 = 0.4619 | – | 1.705e-06
[1], x1 = 0.5159 | – | 1.699e-06
[1], x1 = 0.5572 | – | 1.659e-06
[1], x1 = 0.6064 | – | 1.605e-06
[1], x1 = 0.6501 | – | 1.535e-06
[1], x1 = 0.6915 | – | 1.451e-06
[1], x1 = 0.7275 | – | 1.345e-06
[1], x1 = 0.7645 | – | 1.228e-06
[1], x1 = 0.8471 | – | 8.83e-07
[1], x1 = 0.9111 | – | 5.53e-07
[1], x1 = 0.9577 | – | 2.83e-07
[2], x1 = 0.0778 | 0.136 | –
[2], x1 = 0.1534 | 0.243 | –
[2], x1 = 0.2251 | 0.331 | –
[2], x1 = 0.2785 | 0.378 | –
[2], x1 = 0.3445 | 0.426 | –
[2], x1 = 0.4038 | 0.451 | –
[2], x1 = 0.4555 | 0.461 | –
[2], x1 = 0.5034 | 0.465 | –
[2], x1 = 0.5451 | 0.461 | –
[2], x1 = 0.5759 | 0.456 | –
[2], x1 = 0.6498 | 0.428 | –
[2], x1 = 0.6832 | 0.416 | –
[2], x1 = 0.7322 | 0.389 | –
[2], x1 = 0.7698 | 0.356 | –
[2], x1 = 0.8184 | 0.313 | –
[2], x1 = 0.873 | 0.25 | –
[2], x1 = 0.9036 | 0.189 | –
[2], x1 = 0.9534 | 0.108 | –
